In patent US8188094B2, “Inhibitors of glutaminyl cyclase” (Probiodrug AG, priority 2007, dated 2012) one finds IC50 and Ki data, which are given here for 30 compounds.

The assay has as its target glutaminyl cyclase (QC) (Homo sapiens, UniProt Q16769). The assay can be described thus: QC inhibitor assay (fluorometric / spectrophotometric QC activity assays). The assay is classed as biochemical. As to conditions: QC inhibition, 30° C.; for Ki: progress curves fitted to the general equation for competitive inhibition. On the procedure: All measurements were performed with a BioAssay Reader HTS-7000Plus for microplates (Perkin Elmer) at 30° C. QC activity was evaluated fluorometrically using H-Gln-βNA. The samples consisted of 0.2 mM fluorogenic substrate, 0.25 U pyroglutamyl aminopeptidase (Unizyme, Hørsholm, Denmark) in 0.2 M Tris/HCl, pH 8.0 containing 20 mM EDTA and an appropriately diluted aliquot of QC in a final volume of 250 μl. Excitation/emission wavelengths were 320/410 nm. The assay reactions were initiated by addition of glutaminyl cyclase. QC activity was determined from a standard curve of β-naphthylamine under assay conditions. One unit is defined as the amount of QC catalyzing the formation of 1 μmol pGlu-βNA from H-Gln-βNA per minute under the described conditions.
In a second fluorometric assay, QC was activity determined using H-Gln-AMC as substrate. Reactions were carried out at 30° C. utilizing the NOVOStar reader for microplates (BMG labtechnologies). The samples consisted of varying concentrations of the fluorogenic substrate, 0.1 U pyroglutamyl aminopeptidase (Qiagen) in 0.05 M Tris/HCl, pH 8.0 containing 5 mM EDTA and an appropriately diluted aliquot of QC in a final volume of 250 μl. Excitation/emission wavelengths were 380/460 nm. The assay reactions were initiated by addition of glutaminyl cyclase. QC activity was determined from a standard curve of 7-amino-4-methylcoumarin under assay conditions. The kinetic data were evaluated using GraFit software.
This novel assay was used to determine the kinetic parameters for most of the QC substrates. QC activity was analyzed spectrophotometrically using a continuous method, that was derived by adapting a previous discontinuous assay (Bateman, R. C. J. 1989 J Neurosci Methods 30, 23-28) utilizing glutamate dehydrogenase as auxiliary enzyme. Samples consisted of the respective QC substrate, 0.3 mM NADH, 14 mM α-Ketoglutaric acid and 30 U/ml glutamate dehydrogenase in a final volume of 250 μl. Reactions were started by addition of QC and persued by monitoring of the decrease in absorbance at 340 nm for 8-15 min.
The initial velocities were evaluated and the enzymatic activity was determined from a standard curve of ammonia under assay conditions. All samples were measured at 30° C., using either the SPECTRAFluor Plus or the Sunrise (both from TECAN) reader for microplates. Kinetic data was evaluated using GraFit software.
For inhibitor testing, the sample composition was the same as described above, except of the putative inhibitory compound added. For a rapid test of QC-inhibition, samples contained 4 mM of the respective inhibitor and a substrate concentration at 1 KM. For detailed investigations of the inhibition and determination of Ki-values, influence of the inhibitor on the auxiliary enzymes was investigated first. In every case, there was no influence on either enzyme detected, thus enabling the reliable determination of the QC inhibition. The inhibitory constant was evaluated by fitting the set of progress curves to the general equation for competitive inhibition using GraFit software.

glutaminyl cyclase (QC), sequence (Q16769 29-361): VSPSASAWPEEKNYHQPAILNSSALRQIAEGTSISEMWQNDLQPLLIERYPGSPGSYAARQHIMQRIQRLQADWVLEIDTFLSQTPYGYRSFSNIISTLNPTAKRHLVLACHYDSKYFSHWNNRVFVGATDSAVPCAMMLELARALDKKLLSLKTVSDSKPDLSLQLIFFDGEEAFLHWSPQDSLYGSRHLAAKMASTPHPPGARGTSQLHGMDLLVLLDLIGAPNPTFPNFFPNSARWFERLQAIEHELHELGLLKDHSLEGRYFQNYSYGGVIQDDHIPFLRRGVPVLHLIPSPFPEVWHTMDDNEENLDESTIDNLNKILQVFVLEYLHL

For the compound `Cc1cc(NCCCn2ccnc2)nc(-c2ccccc2)n1` [Example 1, N-(3-(1H-imidazol-1-yl)propyl)-6-methyl-2-phenylpyrimidin-4-amine], the 50% inhibitory concentration (IC50) – broadly, the concentration at which inhibition is half-maximal – came out at 47.8 µM and the Ki (in general, the equilibrium dissociation constant of an inhibitor or competing ligand from its target) amounted to 18 µM.
For the compound `c1ccc(-c2cc(NCCCn3ccnc3)nc(-c3ccccc3)n2)cc1` [Example 2, N-(3-(1H-imidazol-1-yl)propyl)-2,6-diphenylpyrimidin-4-amin], the IC50 came to 49.8 µM and the inhibitory constant (Ki) stood at 3.9 µM.
For `Cc1nc(NCCCn2ccnc2)cc(-c2ccccc2)n1` [Example 3, N-(3-(1H-imidazol-1-yl)propyl)-2-methyl-6-phenylpyrimidin-4-amine], in that order: 28.1 µM and 4.6 µM.
For `Cc1cc(NCCCn2ccnc2)nc(C)n1` [Example 4, N-(3-(1H-imidazol-1-yl)propyl)-2,6-dimethylpyrimidin-4-amine], in that order: 30.3 µM and 9.31 µM.
Taken in the same sequence, the figures for `Cc1ccc(-c2cc(NCCCn3ccnc3)nc(C)n2)cc1` [Example 5, N-(3-(1H-imidazol-1-yl)propyl)-2-methyl-6-p-tolylpyrimidin-4-amine] were 13.3 µM and 3.52 µM.
Regarding `Cc1nc(NCCCn2ccnc2)cc(-c2cc(C(F)(F)F)cc(C(F)(F)F)c2)n1` [Example 6, N-(3-(1H-imidazol-1-yl)propyl)-6-(3,5-bis(trifluoromethyl)phenyl)-2-methyl-pyrimidin-4-amine], inhibition was half-maximal at 14.7 µM (IC50) and the Ki is 4.69 µM.
Take `FC(F)(F)c1cc(-c2cc(NCCCn3ccnc3)nc(-c3ccccc3)n2)cc(C(F)(F)F)c1` [Example 7, N-(3-(1H-imidazol-1-yl)propyl)-6-(3,5-bis(trifluoromethyl)phenyl)-2-phenyl-pyrimidin-4-amine]: the IC50 is 91.1 µM.
`COc1cc(-c2cc(NCCCn3ccnc3)nc(-c3ccccc3)n2)cc(OC)c1OC` [Example 8, N-(3-(1H-imidazol-1-yl)propyl)-6-(3,4,5-trimethoxyphenyl)-2-phenylpyrimidin-4-amine] showed an IC50 of 7.08 µM and a Ki of 1.16 µM.
The compound `Cc1ccc(-c2cc(NCCCn3ccnc3)nc(-c3ccccc3)n2)cc1` [Example 9, N-(3-(1H-imidazol-1-yl)propyl)-2-phenyl-6-p-tolylpyrimidin-4-amine] returned a 50% inhibitory concentration (IC50) of 14.4 µM.
Take `O=[N+]([O-])c1ccc(-c2cc(NCCCn3ccnc3)nc(-c3ccccc3)n2)cc1` [Example 10, N-(3-(1H-imidazol-1-yl)propyl)-6-(4-nitrophenyl)-2-phenylpyrimidin-4-amine]: the IC50 is 12.4 µM.
In turn, `COc1ccccc1-c1cc(NCCCn2ccnc2)nc(-c2ccccc2)n1` [Example 11, N-(3-(1H-imidazol-1-yl)propyl)-6-(2-methoxyphenyl)-2-phenylpyrimidin-4-amine] showed an IC50 of 22.6 µM.
`COc1cccc(-c2cc(NCCCn3ccnc3)nc(-c3ccccc3)n2)c1` [Example 12, N-(3-(1H-imidazol-1-yl)propyl)-6-(3-methoxyphenyl)-2-phenylpyrimidin-4-amine] came in with an IC50 of 9.37 µM and a Ki of 3.75 µM.
Taken in the same sequence, the figures for `c1ccc(-c2nc(NCCCn3ccnc3)cc(-c3ccoc3)n2)cc1` [Example 13, N-(3-(1H-imidazol-1-yl)propyl)-6-(furan-3-yl)-2-phenylpyrimidin-4-amine] were 40.3 µM and 14.9 µM.
`c1ccc(-c2nc(NCCCn3ccnc3)cc(C34CC5CC(CC(C5)C3)C4)n2)cc1` [Example 14, N-(3-(1H-imidazol-1-yl)propyl)-6-(adamant-1-yl)-2-phenylpyrimidin-4-amine] returned an IC50 of 116 µM.
The compound `c1cc(-c2nc(NCCCn3ccnc3)cc(-c3ccoc3)n2)ccn1` [Example 17, N-(3-(1H-imidazol-1-yl)propyl)-6-(furan-3-yl)-2-(pyridin-4-yl)pyrimidin-4-amine] registered an IC50 of 27.3 µM and a Ki of 3.7 µM.
For `FC(F)(F)c1cc(NCCCn2ccnc2)nc(-c2ccncc2)n1` [Example 18, N-(3-(1H-imidazol-1-yl)propyl)-6-(trifluoromethyl)-2-(pyridin-4-yl)pyrimidin-4-amine], in that order: 36.8 µM and 4.19 µM.
For `COc1cccc(-c2cc(NCCCn3ccnc3)nc(C)n2)c1` [Example 19, N-(3-(1H-imidazol-1-yl)propyl)-6-(3-methoxyphenyl)-2-methylpyrimidin-4-amine], in that order: 20.9 µM and 2.7 µM.
For `COc1cc(-c2cc(NCCCn3ccnc3)nc(C)n2)cc(OC)c1OC` [Example 20, N-(3-(1H-imidazol-1-yl)propyl)-6-(3,4,5-trimethoxy-phenyl)-2-methyl-pyrimidin-4-amine], in that order: 6.43 µM and 0.72 µM.
For the compound `COc1ccc(-c2cc(NCCCn3ccnc3)nc(C)n2)cc1` [Example 21, N-(3-(1H-imidazol-1-yl)propyl)-6-(4-methoxyphenyl)-2-methylpyrimidin-4-amine], the IC50 is 18.5 µM and the inhibitory constant (Ki) amounted to 2.26 µM.
Taken in the same sequence, the figures for `COc1ccccc1-c1cc(NCCCn2ccnc2)nc(C)n1` [Example 22, N-(3-(1H-imidazol-1-yl)propyl)-6-(2-methoxyphenyl)-2-methylpyrimidin-4-amine] were 19.3 µM and 2.16 µM.
Consider `O=[N+]([O-])c1ccc(-c2cc(NCCCn3ccnc3)nc(-c3ccncc3)n2)cc1` [Example 24, N-(3-(1H-imidazol-1-yl)propyl)-6-(4-nitrophenyl)-2-(pyridin-4-yl)pyrimidin-4-amine], for which the IC50 came to 16.9 µM. This counts as double-digit micromolar.
Still for that read-out and setting: under `Cc1ccc(-c2cc(NCCCn3ccnc3)nc(-c3ccncc3)n2)cc1` [Example 25, N-(3-(1H-imidazol-1-yl)propyl)-2-(pyridin-4-yl)-6-p-tolylpyrimidin-4-amine] stands 30.6 µM.
As for `COc1ccccc1-c1cc(NCCCn2ccnc2)nc(-c2ccncc2)n1` [Example 26, N-(3-(1H-imidazol-1-yl)propyl)-6-(2-methoxyphenyl)-2-(pyridin-4-yl)pyrimidin-4-amine], the IC50 came out at 8.18 µM and the Ki stood at 0.83 µM.
As to `COc1cccc(-c2cc(NCCCn3ccnc3)nc(-c3ccncc3)n2)c1` [Example 27, N-(3-(1H-imidazol-1-yl)propyl)-6-(3-methoxyphenyl)-2-(pyridin-4-yl)pyrimidin-4-amine], the half-maximal inhibitory concentration (IC50) amounted to 19 µM. This counts as double-digit micromolar.
In the case of `COc1ccccc1-c1cc(NCCCn2cncc2C)nc(-c2ccncc2)n1` [Example 28, 6-(2-Methoxyphenyl)-N-(3-(5-methyl-1H-imidazol-1-yl)propyl)-2-(pyridin-4-yl)pyrimidin-4-amine], the IC50 came out at 1.09 µM and the Ki is 0.281 µM.
As for `c1ccc(-c2nc(Nc3ccc4nc[nH]c4c3)cc(-c3ccc4ncccc4c3)n2)cc1` [Example 30, N-(2-phenyl-6-(quinolin-6-yl)pyrimidin-4-yl)-3H-benzo[d]imidazol-5-amine], the IC50 was found to be 100 µM.
With `Cc1nc(NCCCn2ccnc2)cc(-c2ccc3ncccc3c2)n1` [Example 31, N-(3-(1H-imidazol-1-yl)propyl)-2-methyl-6-(quinolin-6-yl)pyrimidin-4-amine], half-maximal inhibition (IC50) was put at 31.4 µM and the affinity corresponds to a Ki of 3.56 µM.
As for `c1ccc(C2CC2c2cc(NCCCn3ccnc3)nc(-c3ccncc3)n2)cc1` (stereo not drawn) [Example 33, N-(3-(1H-imidazol-1-yl)propyl)-6-(2-phenylcyclopropyl)-2-(pyridin-4-yl)-pyrimidin-4-amine], the concentration for half-maximal inhibition (IC50) came out at 26.5 µM and the inhibition constant (Ki) stood at 3.06 µM.
Turning to `Cc1nc(NCCCn2ccnc2)cc(C2Cc3ccccc3C2)n1` [Example 34, N-(3-(1H-imidazol-1-yl)propyl)-6-(2,3-dihydro-1H-inden-2-yl)-2-methyl-pyrimidin-4-amine], inhibition was half-maximal at 48.3 µM (IC50) and the Ki amounted to 6.82 µM.
For `c1ccc2c(c1)CC(c1cc(NCCCn3ccnc3)nc(-c3ccncc3)n1)C2` [Example 36, N-(3-(1H-imidazol-1-yl)propyl)-6-(2,3-dihydro-1H-inden-2-yl)-2-(pyridin-4-yl)-pyrimidin-4-amine], in that order: 26.8 µM and 3.52 µM.
